The assay concerns the target T1, human D4 receptors (Homo sapiens, UniProt P21917).
T1 construct: expressed in transfected cells
T1 sequence (P21917 1-419): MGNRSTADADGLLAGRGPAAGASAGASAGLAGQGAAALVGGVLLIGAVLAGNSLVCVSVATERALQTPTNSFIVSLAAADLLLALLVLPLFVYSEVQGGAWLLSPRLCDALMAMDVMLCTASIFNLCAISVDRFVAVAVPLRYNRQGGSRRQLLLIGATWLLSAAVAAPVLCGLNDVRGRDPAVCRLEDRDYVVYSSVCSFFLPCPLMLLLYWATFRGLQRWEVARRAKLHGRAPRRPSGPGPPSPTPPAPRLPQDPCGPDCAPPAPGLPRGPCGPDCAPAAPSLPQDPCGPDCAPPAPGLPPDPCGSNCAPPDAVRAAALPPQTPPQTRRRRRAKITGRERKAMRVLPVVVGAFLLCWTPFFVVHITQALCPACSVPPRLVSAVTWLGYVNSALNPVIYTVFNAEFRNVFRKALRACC
Put plainly: Functional antagonist assay: reversal of dopamine inhibition of forskolin-stimulated adenyl cyclase (cAMP). As to conditions: dopamine and forskolin both 10 μM, read-out: % REVERSAL OF DOPAMINE EFFECT. The class given is cell-based. On the procedure: The D4 receptor responds to dopamine and other agonists by reducing adenyl cyclase mediated production of cyclic AMP. Particular test compounds were assayed for their ability to reverse dopamine inhibition of adenyl cyclase by the following procedure. Forskolin was used to elevate the basal adenyl cyclase activity.
CHO Pro 5 cells stably expressing human D4 receptors were plated in 6 well plates in DMEM (Dulbecco's Modified Eagle Medium)/F12(Nutrient Mixture F12 (Ham)) media with 10% FCS (fetal calf serum) and G418 (Geneticen Disulfate), and incubated at 37° C. in a CO2 incubator. The cells were allowed to grow to about 70% confluence before use in the assay.
The culture media of each well was removed by aspiration, and the wells were washed once with serum free media (SFM) (DMEM/F12) media. Then 2 mL of fresh SFM+IBMX media (SFM with 0.5 mM IBMX (3-isobutyl-1-methylxanthine0.1% ascorbic acid and 10 μM pargyline) was added to each well and then incubated at 37° C. for 10 minutes in CO2 incubator. Following incubation, SFM+IBMX media was aspirated and fresh SFM+IBMX media was added to wells separately with one of a) forskolin (10 μM final conc.); b) dopamine and forskolin (both 10 μM final conc.); and c) test compound ([…]), and dopamine and forskolin (both 10 μM final conc.). Basal adenyl cyclase activity was determined from wells with only SFM+IBMX media added.
The cells were then incubated at 37° C. for 30 minutes in a CO2 incubator. Following incubation the media was aspirated from each well and then washed once with 2 mL of PBS (phosphate buffered saline). Each well was then treated with 1 mL cold 95% ethanol:5 mM EDTA (2:1) at 4° C. for 1 h. The cells from each well were then scraped and transferred into individual Eppendorf tubes. The tubes were centrifuged for 5 minutes at 4° C., and the supernatants were transferred to new Eppendorf tubes. The pellets were discarded and the supernatants dried using a SpeedVac. The extracts were then reconstituted in 600 μL of 0.1M sodium acetate buffer, pH 6.1, and stored at 4° C. until assayed for cAMP concentration. cAMP content measured in fmoles/well for each extract was determined by EIA (enzyme-immunoassay) using Amersham Biotrak cAMP EIA kit (Amersham RPN 225).
Total inhibition (IO) of forskolin-stimulated adenyl cyclase activity by dopamine was determined as the difference in concentration of cAMP in the forskolin-treated cells (Cf) and dopamine-forskolin treated cells (Cd).
Net inhibition (I) of forskolin-stimulated adenyl cyclase activity by dopamine in the presence of an antagonist was determined as the difference in concentration of cAMP in the forskolin-treated cells (Cf) and test compound, dopamine and forskolin treated cells (C).
The ability of a test compound to reverse the dopamine inhibition (% reversal, %R) was determined by the formula: […]

For the compound `Clc1ccc2c(c1)C=C(N1CCN(Cc3ccc4c(c3)OCO4)CC1)c1ccccc1S2` [2-chloro-10-(4-piperonyl-1-piperazinyl)dibenzo[b,f]thiepine], the inhibition at 1 µM was 47% and the inhibition at 10 µM was found to be 40%.
As for `Clc1ccc2c(c1)Nc1ccccc1N=C2N1CCN(Cc2ccc3c(c2)OCO3)CC1` [3-chloro-11-(4-piperonyl-1-piperazinyl)-5H-dibenzo[b,e][1,4]diazepine], the inhibition at 1 µM was 19% and the inhibition at 10 µM came out at 50%.
Consider `Clc1ccc2c(c1)N=C(N1CCN(Cc3ccc4c(c3)OCO4)CC1)c1ccccc1O2` [8-chloro-11-(4-piperonyl)-1-piperazinyl)dibenz[b,f][1,4]oxazepine], for which the inhibition at 1 µM was 46% and the inhibition at 10 µM amounted to 68%.
Take `c1ccc2c(c1)N=C(N1CCN(Cc3ccc4c(c3)OCO4)CC1)c1ccccc1O2` [11-(4-piperonyl)-1-piperazinyl)-dibenz[b,f][1,4]oxazepine]: the inhibition at 1 µM turned out to be 40% and the inhibition at 10 µM stood at 50%.

The values are drawn from patent US5798350A, “Dopamine receptor ligands” (Allelix Biopharmaceuticals, Inc., priority 1996, dated 1998).
